Laboratory results published in ChEMBL document CHEMBL1143894, “Synthetic derivatives of the alpha- and beta-amyrin triterpenes and their antinociceptive properties” (2008).

Assays:
[1] = system: Mus musculus; test: Antinociceptive effect in sc dosed Swiss mouse assessed as inhibition of acetic acid-induced visceral pain; assay type: functional; settings: read-out: ID50 (the source's name)
[2] = system: Mus musculus; test: Antinociceptive effect in Swiss mouse assessed as inhibition of acetic acid-induced visceral pain at 0.0001 to 30 mg/kg, ip relative to morphine; assay type: functional; settings: dose mg/kg 0.0001-30; route intraperitoneal

SMILES: CN1CC[C@]23c4c5ccc(O)c4O[C@H]2[C@@H](O)C=C[C@H]3[C@H]1C5 [MORPHINE]
- ED50 [1]: 0.67 mg/kg

SMILES: CC(=O)Oc1ccccc1C(=O)O [ASPIRIN]
- Inhibition [2]: 83%
- ED50 [1]: 24 mg/kg
